Measurements published in US8951997B2, “Substituted isoquinoline derivative” (D. Western Therapeutics Institute, Inc., priority 2009, dated 2015).
Counter-ions that a name gives are not always drawn.

Test system: rabbits (New Zealand White)
Experiment: Ocular hypotensive effect in rabbits
Format: in vivo, rabbit
Settings: Oryctolagus cuniculus, topical, 0.04 mL dropped to one eye, vehicle to contralateral eye, test compound solution concentration 10 (W/V), read-out: Maximum ocular hypotensive rate
Procedure: The compound of the present invention was administered to rabbits (New Zealand White, sex: male, 3 to 7 per group) and evaluated for its ocular hypotensive effect.
Each test compound was dissolved in a vehicle (1.04 g of sodium dihydrogen phosphate dihydrate and 0.5 g of sodium chloride dissolved in purified water and then adjusted to pH 7.0 with sodium hydroxide to make the total amount to 100 mL) to prepare a test compound solution with a concentration of 10 (W/V).
The intraocular pressures of the rabbits were measured using Tiolat TonoVet handheld tonometer immediately before administration of test compound. The test compound solution and the vehicle were dropped at a volume of 0.04 mL to one eye and the contralateral eye, respectively, and the intraocular pressures were measured over time in the same way as above. The rate of the intraocular pressure of the eye receiving the test compound solution to that of the eye receiving the vehicle was calculated as an ocular hypotensive rate.

| Structure (SMILES) | inhibition in vivo at 10 % |
| --- | --- |
| CC[C@@H]1CNCCCN1S(=O)(=O)c1ccc2cnccc2c1 [Example 19, (R)-6-(2-ethyl-1,4-diazepan-1-ylsulfonyl)isoquinoline dihydrochloride] | ≥ 15% |
| O=S(=O)(c1ccc2cnccc2c1Br)N1CCCNCC1 [Example 5, 5-bromo-6-(1,4-diazepan-1-ylsulfonyl)isoquinoline dihydrochloride] | ≥ 15% |
| C[C@H]1CNCCCCCN1S(=O)(=O)c1ccc2cnccc2c1 [Example 28, (S)-6-(2-methyl-1,4-diazonan-1-ylsulfonyl)isoquinoline dihydrochloride] | ≥ 15% |
| C[C@H]1CCNC[C@H](C)N1S(=O)(=O)c1ccc2cnccc2c1 [Example 41, (2S,7S)-6-(2,7-dimethyl-1,4-diazepan-1-ylsulfonyl)isoquinoline dihydrochloride] | ≥ 15% |
| O=S(=O)(c1ccc2cnccc2c1)N1CCCCNCC1CF (stereo in doubt) [Example 27, (R)-6-(2-fluoromethyl-1,4-diazocan-1-ylsulfonyl)isoquinoline dihydrochloride] | ≥ 15% |
| O=S(=O)(c1ccc2cnccc2c1)N1CCCNC[C@H]1CF [Example 26, (S)-6-(2-fluoromethyl-1,4-diazepan-1-ylsulfonyl)isoquinoline dihydrochloride] | ≥ 15% |
| C[C@@H]1CNCCCN1S(=O)(=O)c1cc2ccncc2cc1F [Example 25, (R)-6-(2-methyl-1,4-diazepan-1-ylsulfonyl)-7-fluoroisoquinoline dihydrochloride] | ≥ 15% |
| C[C@@H]1CN(C(=O)CN)CCCCN1S(=O)(=O)c1ccc2cnccc2c1 [Example 47, (R)-6-(4-glycyl-2-methyl-1,4-diazocan-1-ylsulfonyl)isoquinoline dihydrochloride] | 5 to 15% |
| C[C@@H]1CNC[C@@H](C)N1S(=O)(=O)c1ccc2cnccc2c1 [Example 40, (2R,6R)-6-(2,6-dimethylpiperazin-1-ylsulfonyl)isoquinoline dihydrochloride] | ≥ 15% |
| NCC(=O)N1CCCN(S(=O)(=O)c2ccc3cnccc3c2)CC1 [Example 45, 6-(4-glycyl-1,4-diazepan-1-ylsulfonyl)isoquinoline dihydrochloride] | 5 to 15% |
| C[C@H]1CNCCCCN1S(=O)(=O)c1ccc2cnccc2c1 [Example 24, (S)-6-(2-methyl-1,4-diazocan-1-ylsulfonyl)isoquinoline dihydrochloride] | ≥ 15% |
| NC1CCN(S(=O)(=O)c2ccc3cnccc3c2)CC1 [Example 4, 6-(4-aminopiperidin-1-ylsulfonyl)isoquinoline dihydrochloride] | 5 to 15% |
| C[C@@H]1CNCCNCCN1S(=O)(=O)c1ccc2cnccc2c1 [Example 44, (R)-6-(2-methyl-1,4,7-triazonan-1-ylsulfonyl)isoquinoline trihydrochloride] | ≥ 15% |
| C[C@@H]1CCN(S(=O)(=O)c2ccc3cnccc3c2)CCNC1 [Example 30, (R)-6-(6-methyl-1,4-diazocan-1-ylsulfonyl)isoquinoline dihydrochloride] | ≥ 15% |
| O=S(=O)(c1cc(F)c2cnccc2c1)N1CCCNCC1 [Example 6, 6-(1,4-diazepan-1-ylsulfonyl)-8-fluoroisoquinoline dihydrochloride] | 5 to 15% |
| C[C@@H]1CNCCCCN1S(=O)(=O)c1ccc2cnccc2c1Br [Example 23, (R)-5-bromo-6-(2-methyl-1,4-diazocan-1-ylsulfonyl)isoquinoline dihydrochloride] | ≥ 15% |
| C[C@H]1CCNCCCN1S(=O)(=O)c1ccc2cnccc2c1 [Example 42, (S)-6-(2-methyl-1,5-diazocan-1-ylsulfonyl)isoquinoline dihydrochloride] | ≥ 15% |
| CC1(C)CNCCCN1S(=O)(=O)c1ccc2cnccc2c1 [Example 22, 6-(2,2-dimethyl-1,4-diazepan-1-ylsulfonyl)isoquinoline dihydrochloride] | ≥ 15% |
